# Reference: patent publication EP1582519A2, “Heteropolycyclic compounds and their use as metabotropic glutamate receptor antagonists” (NPS PHARMACEUTICALS, INC., priority 1999, dated 2001)
# Target: native receptor, mGluR5d (Rattus norvegicus, UniProt P31424)
# Assay: Antagonist activity on the native receptor mGluR5d
# Assay type: cell-based
# Protocol: Primary astrocyte cultures were prepared from 3-5 day old Sprague-Dawley rat pups using a modification of Miller (Miller et al, J. Neuroscience, 15(9): 6103-6109, 1995). In brief, primary cultures were plated on poly-L lysine coated flasks in Dulbecco's modified Eagle's medium (DMEM) containing fetal calf serum (FCS). After 6 days, cell cultures were shaken over night at 280 rpm, then transferred to astrocyte-defined media (ADM) containing growth factors that up-regulate the expression of mGluR5 (Miller et al., 1995). […] For FLIPR analysis, cells were seeded on poly-D lysine coated clear bottom 96-well plates with black sides and analysis of [Ca^2+]i mobilization was performed 3 days following the growth factor up-regulation. Cell cultures in the 96-well plates were loaded with a 4 µM solution of acetoxymethyl ester form of the fluorescent calcium indicator fluo-3 (Molecular Probes, Eugene, Oregon) in 0.01 % pluronic. All assays were performed in a buffer containing 127 mM NaCl, 5 mM KCl, 2 mM MgCl2, 0.7 mM NaH2PO4, 2 mM CaCl2, 0.422 mg/ml NaHCO3, 2.4 mg/ml HEPES, 1.8 mg/ml glucose and 1 mg/ml BSA Fraction IV (pH 7.4). […] After each addition the fluorescence signal was sampled 50 times at 1 second intervals followed by 3 samples at 5 second intervals. Responses were measured as the peak height of the response within the sample period. […]
# native receptor, mGluR5d, sequence (P31424 21-1203): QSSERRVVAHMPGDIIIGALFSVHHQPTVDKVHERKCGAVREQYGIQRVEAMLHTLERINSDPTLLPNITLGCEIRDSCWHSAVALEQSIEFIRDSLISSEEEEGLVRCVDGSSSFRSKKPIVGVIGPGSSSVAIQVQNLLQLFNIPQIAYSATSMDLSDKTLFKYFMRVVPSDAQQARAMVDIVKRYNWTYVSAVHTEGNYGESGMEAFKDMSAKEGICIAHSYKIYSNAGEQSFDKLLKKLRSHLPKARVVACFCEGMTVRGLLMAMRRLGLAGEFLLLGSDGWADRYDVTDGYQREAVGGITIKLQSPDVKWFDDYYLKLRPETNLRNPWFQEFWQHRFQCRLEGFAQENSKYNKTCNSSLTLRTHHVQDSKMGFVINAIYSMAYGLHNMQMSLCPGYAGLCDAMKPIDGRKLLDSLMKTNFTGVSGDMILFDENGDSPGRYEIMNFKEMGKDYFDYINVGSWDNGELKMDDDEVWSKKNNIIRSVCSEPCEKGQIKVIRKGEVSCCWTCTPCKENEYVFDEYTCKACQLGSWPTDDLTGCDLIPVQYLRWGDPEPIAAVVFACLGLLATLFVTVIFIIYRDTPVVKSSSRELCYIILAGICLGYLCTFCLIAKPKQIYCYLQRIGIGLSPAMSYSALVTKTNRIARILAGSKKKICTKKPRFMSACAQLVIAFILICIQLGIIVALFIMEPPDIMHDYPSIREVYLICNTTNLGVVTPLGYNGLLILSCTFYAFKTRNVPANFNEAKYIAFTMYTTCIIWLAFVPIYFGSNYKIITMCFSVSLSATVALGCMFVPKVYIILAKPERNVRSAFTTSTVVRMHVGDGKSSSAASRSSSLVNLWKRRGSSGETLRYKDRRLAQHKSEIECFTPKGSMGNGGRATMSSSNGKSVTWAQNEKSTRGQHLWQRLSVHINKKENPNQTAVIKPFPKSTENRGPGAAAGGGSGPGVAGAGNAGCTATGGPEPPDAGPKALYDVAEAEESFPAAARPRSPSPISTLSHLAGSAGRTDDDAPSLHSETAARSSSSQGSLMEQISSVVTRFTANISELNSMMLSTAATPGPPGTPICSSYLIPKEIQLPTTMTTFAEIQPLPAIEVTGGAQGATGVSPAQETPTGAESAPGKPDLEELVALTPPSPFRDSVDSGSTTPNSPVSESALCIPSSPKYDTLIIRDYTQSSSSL
row,SMILES,IC50 [µM]
1,"N#Cc1cccc(-c2nc(-c3ccccn3)no2)c1 [B21, 3-(2-pyridyl)-5-(3-cyanophenyl)-1,2,4-oxadiazole]",0.121
2,"N#Cc1cccc(-c2nc(-c3ccccn3)co2)c1 [B52, 2-[3-cyanophenyl]-4-[pyridin-2-yl]-1,3-oxazole]",0.074
